The source of these data is PubChem BioAssay (NCI).

Common to all, as to assay: growth of human tumour cells (NCI), 48 h
Test [1] concerns MDA-MB-231 breast.
For test [2], the system named is OVCAR-4 ovarian.
For test [3], the system named is SNB-75 CNS.
Test [4] has as its system CCRF-CEM leukemia.
In test [5] the test system is IGROV1 ovarian.
Test [6] relates to U251 CNS.
In test [7] the test system is MCF7 breast.
For test [8], the system named is SK-MEL-28 melanoma.
Test [9] has as its system UO-31 renal.
Test [10] deals with SF-295 CNS.

Molecules are shown by their SMILES.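 Results reflect a 48-hour exposure of cells in 96-well plates to compound at five concentrations. Abbreviation: GI50, concentration required for 50% inhibition of growth. TGI is the concentration that stops growth completely.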

For the compound `COc1ccc(-c2[nH]c3ccccc3c2C=C(C#N)C#N)cc1`, the GI50 in test [1] was 0.543 µM; in [2], 0.797 µM; in test [3], 0.412 µM; in [4], 0.352 µM; in test [6], 0.479 µM; in test [7], 0.346 µM. For the same compound, the GI50 was 1.14 µM in test [8] and 0.331 µM in test [10]. For the same compound, the TGI in test [1] is more than 22.6 µM; in test [2] it was more than 100 µM; in test [3] it was 20.5 µM; in test [4], 10.3 µM; in test [5] it was more than 100 µM; in [6], more than 100 µM. In addition, the TGI is more than 100 µM in test [7], more than 39.3 µM in test [8], more than 100 µM in [9] and 6.3 µM in test [10].

For the compound `CC(C)=CCC[C@H](C)[C@@H]1CC[C@]2(C)C3CC[C@]4(OC4(C)C)C(CCCO)[C@]3(C)CC[C@@]12C` (stereo partly drawn), the GI50 in test [1] is 20.5 µM; in test [2], 25.3 µM; in test [3], 29.8 µM; in [4], 25.2 µM; in test [5], 81.7 µM; in [6] it was 19.7 µM. Also, the GI50 in test [7] is 18.1 µM; in [8] it was 23.9 µM; in test [9], 33.5 µM; in [10], 27.9 µM. Moreover, the TGI was 43.3 µM in [1]; 59 µM in test [2]; 58 µM in test [3]; 65.9 µM in test [4]; more than 100 µM in test [5]; 66.1 µM in test [6]. Besides, the TGI in test [7] was 43.6 µM; in test [8] it was 58.5 µM; in test [9], more than 100 µM; in [10], 63.3 µM.

In the case of `CCCN(CCC)C(=O)C1=Cc2ccc(-c3ccc(C(=O)N4CCCC4)cc3)cc2N=C(N)C1`, the GI50 in test [1] was 13.2 µM; in test [2] it was 9.45 µM; in test [3], 3.8 µM; in [4] it was 10.6 µM; in [5], 14.4 µM; in test [6], 7.69 µM. The GI50 in test [7] is 3.32 µM; in test [8], 8.91 µM; in test [9], 9.15 µM; in test [10], 4.92 µM. Further, the TGI was 77 µM in test [1]; 69.5 µM in test [2]; 30.6 µM in test [3]; 74.4 µM in test [4]; 54.8 µM in test [5]; 24.6 µM in test [6]. Moreover, the TGI turned out to be 15.3 µM in [7], 24.8 µM in test [8], 32.8 µM in [9] and 24.5 µM in [10].

Take `CC(=O)N1N=C2/C(=C/c3ccccc3)CC(C)CC2C1c1ccccc1` (stereo not drawn): the GI50 in test [1] is 14.2 µM; in [2], 10.8 µM; in [3], 15.6 µM; in test [4], 15.5 µM; in test [5] it was 12.1 µM; in [6] it was 11.7 µM. Further, the GI50 was 10.1 µM in test [7], 18.5 µM in test [8], 12.8 µM in [9] and 15.9 µM in [10]. Moreover, the TGI in test [1] was determined as 31.8 µM; in test [2] it was 25.2 µM; in test [3], 30.9 µM; in test [4], 53.9 µM; in [5], 41.9 µM; in test [6], 25.4 µM. Also, the TGI in test [7] turned out to be 22.6 µM; in [8] it was 36.5 µM; in test [9], 31.1 µM; in test [10] it was 35.1 µM.

Regarding `C[C@@H]1CN(C(=O)c2ccc(NC(=O)c3cc(O[C@H](C)c4c(Cl)ccc(F)c4Cl)c(N)nn3)cc2)C[C@H](C)N1`, the GI50 in [1] is 2.1 µM; in test [2], 8.84 µM; in test [3], 2.8 µM; in test [4] it was 1.78 µM; in test [5] it was 4.38 µM; in test [6] it was 3.4 µM. The GI50 in [7] was 0.567 µM; in test [8], 1.75 µM; in test [9], 3.26 µM; in [10] it was 1.11 µM. In addition, the TGI in test [1] was 8 µM; in test [2], 24.1 µM; in [3], 11.1 µM; in test [4], 12 µM; in test [5], 20.4 µM; in test [6] it was 12.9 µM. Also, the TGI amounted to 12.6 µM in test [7], 3.86 µM in test [8], 14 µM in test [9] and 10.5 µM in [10].

`CC(C)(C)NC(C1=CC(C)(C)c2ccccc2C1=O)c1ccccc1` (stereo not drawn): the GI50 in test [1] was 1.58 µM; in test [2], 1.51 µM; in [3] it was 1.02 µM; in [4], 1.14 µM; in test [5] it was 1.52 µM; in [6], 1.54 µM. Moreover, the GI50 in test [7] is 1.32 µM; in [8], 1.6 µM; in test [9] it was 1.18 µM; in test [10], 5.07 µM. Further, the TGI in test [1] is 3.45 µM; in [2], 5.93 µM; in test [3], 2.57 µM; in [4], 4.07 µM; in test [5], 4.87 µM; in test [6] it was 2.87 µM. The TGI in test [7] was found to be 2.59 µM; in test [8] it was 2.95 µM; in [9], 2.45 µM; in [10], 17.8 µM.

With `Cn1nccc1Nc1nccc(-c2cc3c(s2)C(C)(C)N(CCN2CCOCC2)C3=O)n1`, the GI50 in test [1] is 2.8 µM; in test [2], 24 µM; in test [3], 15.9 µM; in [4], 23.4 µM; in test [5] it was 2.15 µM; in test [6] it was 33.7 µM. Also, the GI50 was 24.1 µM in test [7], 0.348 µM in [8], 3.76 µM in test [9] and more than 89.9 µM in test [10]. Moreover, the TGI in [1], in [2], in test [3], in test [4], in test [5] and in [6] was more than 100 µM each time. Also, the TGI in test [7], in [8], in test [9] and in test [10] was more than 100 µM throughout.

`Cc1cc(N2CCCCC2)nc(N(CCCNc2ccnc3cc(Cl)ccc23)Cc2ccco2)n1`: the GI50 in [1] is 1.73 µM; in test [2] it was 2.69 µM; in [3] it was 3.36 µM; in test [4] it was 2.01 µM; in test [5], 1.82 µM; in test [6], 1.8 µM. Further, the GI50 in [7] is 1.81 µM; in test [8], 1.62 µM; in [9] it was 1.17 µM; in [10], 1.29 µM. Besides, the TGI in test [1] amounted to 4.24 µM; in test [2] it was 14.3 µM; in [3], 16.8 µM; in test [4], 12.6 µM; in test [5], 6.57 µM; in [6], 3.76 µM. Further, the TGI amounted to 5.13 µM in test [7], 3.28 µM in test [8], 2.59 µM in test [9] and 3.59 µM in test [10].

On to `O=[N+]([O-])c1ccc(Br)c([N+](=O)[O-])c1`, for which the GI50 in test [1] was 2.68 µM; in test [2] it was 1.72 µM; in test [3], 1.69 µM; in test [4] it was 1.79 µM; in test [5], 1.92 µM; in [6], 1.72 µM. For the same compound, the GI50 in test [7] is 1.9 µM; in test [8] it was 1.89 µM; in test [9], 0.266 µM; in test [10] it was 2.38 µM. Further, the TGI amounted to 7.12 µM in test [1]; 3.19 µM in test [2]; 4.36 µM in test [3]; 6.83 µM in [4]; 3.94 µM in test [5]; 3.29 µM in test [6]. Besides, the TGI is 4.75 µM in [7], 3.64 µM in [8], 0.779 µM in test [9] and 5.96 µM in test [10].

As to `COc1ccc(CCN2C(=O)C=CC2=O)cc1OC`, the TGI in test [1] is 28.5 µM; in test [2], 5.07 µM; in [3], 36.1 µM; in test [4], 2.93 µM; in [5], 36.7 µM; in test [6], 39.1 µM. Also, the TGI in test [7] was 39.7 µM; in [8] it was 31.4 µM; in test [9] it was 3.05 µM; in [10] it was 33.5 µM.

With `O=C(Nc1ccccc1O)c1cccc(NC2=C(Cl)C(=O)N(Cc3ccccc3)C2=O)c1`, the GI50 in test [1] was 1.89 µM; in test [2] it was 10.3 µM; in test [3] it was 13.5 µM; in test [4], less than 0.0179 µM; in test [5] it was 2.87 µM; in test [6], 3.38 µM. The GI50 was 2.7 µM in test [7], 7.23 µM in [8], 8.53 µM in test [9] and 4.46 µM in test [10]. The TGI in test [1] stood at 7.53 µM; in test [2], 45.4 µM; in test [3], 33.1 µM; in test [4], 3.85 µM; in [5] it was 8.65 µM; in [6], 13.9 µM. Further, the TGI in test [7] came out at 14.8 µM; in test [8], 20.5 µM; in test [9] it was 25.1 µM; in [10], 12.5 µM.

Turning to `C[n+]1c(/C=C\c2ccc(Cl)cc2)ccc2ccccc21`, the GI50 was 38.9 µM in [1]; 12 µM in test [2]; 23.2 µM in test [3]; 32.4 µM in test [4]; 27.2 µM in test [5]; 3.7 µM in test [6]. The GI50 was 20.2 µM in [7], 13.6 µM in test [8], 72.5 µM in [9] and 13.8 µM in test [10]. For the same compound, the TGI in test [1], in [2], in test [3], in [4], in [5] and in [6] was more than 100 µM each time. Besides, the TGI in [7] is more than 100 µM; in test [8] it was 54.3 µM; in [9], more than 100 µM; in test [10], more than 100 µM.

With `CCOc1cccc(/C=N/NC(=O)c2ccc(Nc3ccnc(C(F)(F)F)c3)cc2)c1O`, the GI50 in test [1] is 1.7 µM; in test [2], 0.755 µM; in [3] it was 3.34 µM; in [4], 0.332 µM; in [5], 2.32 µM; in [6], 0.906 µM. The GI50 in test [7] was 0.7 µM; in [8] it was 1.63 µM; in [9], 0.781 µM; in test [10] it was 1.28 µM. The TGI in test [1] is more than 100 µM; in test [2], more than 100 µM; in test [3], more than 67.5 µM; in test [4], 8.36 µM; in test [5], more than 23.9 µM; in [6] it was more than 58 µM. Besides, the TGI in [7] is more than 59 µM; in test [8], more than 58.5 µM; in [9], more than 25.7 µM; in test [10] it was 40.6 µM.

Regarding `CN(C)c1ccc(N2Cc3ccccc3OC3=C2C(=O)c2c(O)ccc(O)c2C3=O)cn1`, the GI50 in test [1] was 0.234 µM; in test [2], 0.33 µM; in test [3], 0.769 µM; in test [4] it was 0.102 µM; in test [5], 0.28 µM; in test [6], 0.311 µM. The GI50 in [7] was 0.15 µM; in [8], 0.275 µM; in [9], 0.135 µM; in test [10] it was 1.8 µM. The TGI came to 0.745 µM in test [1]; 1.29 µM in test [2]; 6.93 µM in test [3]; 0.815 µM in test [4]; 1 µM in test [5]; 1.2 µM in [6]. Moreover, the TGI was determined as 0.456 µM in [7], 0.762 µM in test [8], 0.351 µM in test [9] and 4.32 µM in test [10].

Take `CC(=O)N1c2ccccc2C23CCN(C)CC4C(C)OCC(C4CC2=O)C13` (stereo not drawn): the TGI in test [1], in test [2], in [3], in test [4], in [5] and in [6] was more than 100 µM throughout. The TGI in test [7], in test [8], in test [9] and in test [10] was more than 100 µM each time.
